Measured values taken from patent US5118681A (priority 1989, dated 1992).
In brackets after ≈: the same amount, converted by molar mass.

Tests used:
[1] = test system: Pellicularia filamentosa (f. sp. sasiki); assay: whole plant or invertebrate; format: in vivo; settings: 120 h; read-out: % control RSB
[2] = test system: Piricularia oryzae; assay: whole plant or invertebrate; format: in vivo; settings: Pyricularia oryzae, read-out: % control RB
[3] = test system: Puccinia recondita (f. sp. tritici Races PKB and PLD); assay: whole plant or invertebrate; format: in vivo; settings: Puccinia recondita, 240 h; read-out: % control WLR
[4] = test system: Erysiphe graminis (f. sp. tritici); assay: whole plant or invertebrate; format: in vivo; settings: Blumeria graminis; read-out: % control WPM
[5] = test system: Pseudoperonospora cubensis; assay: whole plant or invertebrate; format: in vivo; settings: Pseudoperonospora cubensis, in Cucumis sativus, 168 h; read-out: % control CDM
[6] = test system: Phytophthora infestans; assay: whole plant or invertebrate; format: in vivo; settings: Phytophthora infestans, in Solanum lycopersicum, 96 h, read-out: % control TLB
[7] = test system: A.n; assay: Minimum Inhibitory Concentration Test, alternate (Table 4), A.n; format: cell-based, Aspergillus niger; settings: Aspergillus niger, TSB, 72 hours
Method: (§1) A 125 μl aliquot of 10,000 ppm test compound in acetone was added to 4.88 ml of TSB to provide a 250 ppm solution. From this solution, 100 μL was transferred to the first row of two microtiter plate columns. Both replicates and five additional compounds were all serially diluted 1:1 to a final concentration of 0.8 ppm in TSB.
(§2) Inoculation was accomplished by diluting a 24 hr Ps fl culture, four mls per 36 mls of phosphate buffer solution. A Dynatech autoinoculator was used to transfer 1.5 μl of this cell suspension to the microtiter plates. The plates were incubated at 30° C. for 3 days before the lowest concentration at which no growth occurs was recorded in the database. The SOK data and MIC test data on Ps.fl, Ps.ae, E.c, and S.a. bacteria and Candida albicans (C.alb), A.n and A.p fungi are listed in Table 4.

[8] = test system: Pseudomonas fluorescens; assay: Minimum Inhibitory Concentration Test, alternate (Table 4), Ps.fl; format: cell-based; settings: Pseudomonas fluorescens, TSB, 72 hours, 30° C
Method: as §1, §2

Q: How did the pest or weed control at 200 ppm [1] turn out when CCCCCCCCNC(=O)/C=C\SC(C(=O)NCCCC)C(=O)OCC (stereo not drawn) [Example 13, N-n-octyl-cis-3-[2-(ethyl-N-n-butylmalonamido)thio]acrylamide] was run?
A: 0%

Q: What about the pest or weed control at 200 ppm [2] of the same molecule?
A: 50%

Q: What about the pest or weed control at 200 ppm [3] of the same molecule?
A: 50%

Q: And the pest or weed control at 200 ppm [4]?
A: 75%

Q: What about the pest or weed control at 200 ppm [5] of the same molecule?
A: 99%

Q: And the pest or weed control at 200 ppm [6]?
A: 80%

Q: With CCCCCCCCNC(=O)/C=C\SC(C(=O)NCC(C)C)C(=O)OCC (stereo not drawn) [Example 14, N-n-octyl-cis-3-[2-(ethyl-N-(2-methylpropyl)malonamido)thio]acrylamide] as the molecule, how does the pest or weed control at 200 ppm [1] read?
A: 0%

Q: And the pest or weed control at 200 ppm [2]?
A: 0%

Q: What about the pest or weed control at 200 ppm [3] of the same molecule?
A: 50%

Q: What about the pest or weed control at 200 ppm [4] of the same molecule?
A: 75%

Q: And the pest or weed control at 200 ppm [5]?
A: 95%

Q: What about the pest or weed control at 200 ppm [6] of the same molecule?
A: 50%

Q: CCCCCCCCNC(=O)/C=C\SC(C(=O)NCCC)C(=O)OCC (stereo not drawn) [Example 15, N-n-octyl-cis-3-[2-(ethyl-N-n-propylmalonamido)thio]acrylamide] was tested. Which pest or weed control at 5200 ppm [1] did it give?
A: 25%

Q: And the pest or weed control at 200 ppm [2]?
A: 40%

Q: What about the pest or weed control at 200 ppm [3] of the same molecule?
A: 62%

Q: What about the pest or weed control at 200 ppm [4] of the same molecule?
A: 25%

Q: What about the pest or weed control at 200 ppm [5] of the same molecule?
A: 100%

Q: And the MIC [7]?
A: 63 µg/mL (≈ 163 µM)

Q: And the MIC [8]?
A: > 500 µg/mL

Q: What about the pest or weed control at 200 ppm [6] of the same molecule?
A: 89%

Q: Which results are given for CCCCCCCCNC(=O)/C=C\SC(C(=O)NC(C)CC)C(=O)OCC (stereo not drawn) [Example 16, N-n-octyl-cis-3-[2-(ethyl-N-(1-methylpropyl)malonamido)thio]acrylamide]?
A: pest or weed control at 200 ppm [1]: 0%; pest or weed control at 200 ppm [2]: 40%; pest or weed control at 200 ppm [3]: 72%; pest or weed control at 200 ppm [4]: 0%; pest or weed control at 200 ppm [5]: 42%; MIC [7]: > 500 µg/mL; MIC [8]: > 500 µg/mL; pest or weed control at 200 ppm [6]: 47%

Q: With CCCCCCCCNC(=O)/C=C\SC(C(=O)NCCCCCC)C(=O)OCC (stereo not drawn) [Example 17, N-n-octyl-cis-3-[2-(ethyl-N-n-hexylmalonamido)thio]acrylamide] as the molecule, how does the pest or weed control at 200 ppm [1] read?
A: 0%

Q: What about the pest or weed control at 200 ppm [2] of the same molecule?
A: 0%

Q: What about the pest or weed control at 200 ppm [3] of the same molecule?
A: 75%

Q: And the pest or weed control at 200 ppm [4]?
A: 0%

Q: What about the pest or weed control at 200 ppm [5] of the same molecule?
A: 100%

Q: And the MIC [7]?
A: > 500 µg/mL

Q: And the MIC [8]?
A: > 500 µg/mL

Q: And the pest or weed control at 200 ppm [6]?
A: 90%

Q: For CCCCCCCCNC(=O)/C=C\SC(C(=O)NCCC)C(=O)NCCC [Example 19, N-n-octyl-cis-3-[2-(N,N'-di-n-propylmalonodiamido)thio]acrylamide], which pest or weed control at 200 ppm [1] is on record?
A: 0%

Q: What about the pest or weed control at 200 ppm [2] of the same molecule?
A: 0%

Q: And the pest or weed control at 200 ppm [3]?
A: 62%

Q: And the pest or weed control at 200 ppm [4]?
A: 25%

Q: And the pest or weed control at 200 ppm [5]?
A: 95%

Q: What about the MIC [7] of the same molecule?
A: > 500 µg/mL

Q: What about the MIC [8] of the same molecule?
A: > 500 µg/mL

Q: What about the pest or weed control at 200 ppm [6] of the same molecule?
A: 89%

Q: Which results are given for CCCCCCCCNC(=O)/C=C\SC(C(=O)NCc1ccccc1)C(=O)OCC (stereo not drawn) [Example 20, N-n-octyl-cis-3-[2-(ethyl-N-benzylmalonamido)thio]acrylamide]?
A: pest or weed control at 200 ppm [1]: 0%; pest or weed control at 200 ppm [2]: 90%; pest or weed control at 200 ppm [3]: 75%; pest or weed control at 200 ppm [4]: 0%; pest or weed control at 200 ppm [5]: 100%; MIC [7]: > 500 µg/mL; MIC [8]: > 500 µg/mL; pest or weed control at 200 ppm [6]: 90%

Q: With CCCCCCCCNC(=O)/C=C\SC(C(=O)Nc1ccccc1Cl)C(=O)OCC (stereo not drawn) [Example 21, N-n-octyl-cis-3-{2-[ethyl-N-(2-chlorophenyl)malonamido]thio}acrylamide] as the molecule, how does the pest or weed control at 200 ppm [1] read?
A: 0%

Q: What about the pest or weed control at 200 ppm [2] of the same molecule?
A: 100%

Q: And the pest or weed control at 200 ppm [3]?
A: 75%

Q: And the pest or weed control at 200 ppm [4]?
A: 62%

Q: What about the pest or weed control at 200 ppm [5] of the same molecule?
A: 97%

Q: What about the MIC [7] of the same molecule?
A: 8 µg/mL (≈ 17.6 µM)

Q: And the MIC [8]?
A: > 500 µg/mL

Q: And the pest or weed control at 200 ppm [6]?
A: 97%

Q: With CCCCCCCCNC(=O)/C=C\SC(C(=O)NCc1ccc(Cl)cc1)C(=O)OCC (stereo not drawn) [Example 22, N-n-octyl-cis-3-{2-[ethyl-N-(4-chlorobenzyl)malonamido]thio}acrylamide] as the molecule, how does the pest or weed control at 200 ppm [1] read?
A: 0%

Q: And the pest or weed control at 200 ppm [2]?
A: 90%

Q: And the pest or weed control at 200 ppm [3]?
A: 50%

Q: What about the pest or weed control at 200 ppm [4] of the same molecule?
A: 37%

Q: What about the pest or weed control at 200 ppm [5] of the same molecule?
A: 100%

Q: What about the MIC [7] of the same molecule?
A: > 500 µg/mL

Q: What about the MIC [8] of the same molecule?
A: > 500 µg/mL

Q: What about the pest or weed control at 100 ppm [6] of the same molecule?
A: 99%

Q: What does the source list for CCCCCCCCNC(=O)/C=C\SC(C(=O)Nc1cccc(OC)c1)C(=O)OCC (stereo not drawn) [Example 23, N-n-octyl-cis-3-{2-[ethyl-N-(3-methoxyphenyl)malonamido]thio}acrylamide]?
A: pest or weed control at 200 ppm [1]: 0%; pest or weed control at 200 ppm [2]: 50%; pest or weed control at 200 ppm [3]: 50%; pest or weed control at 200 ppm [4]: 47%; pest or weed control at 200 ppm [5]: 92%; MIC [7]: > 500 µg/mL; MIC [8]: > 500 µg/mL; pest or weed control at 200 ppm [6]: 100%

Q: For CCCCCCCCCCCCNC(=O)C(S/C=C\C(=O)NCCCCCCCC)C(=O)OCC (stereo not drawn) [Example 24, N-n-octyl-cis-3-[2-(ethyl-N-n-dodecylmalonamido)thio]acrylamide], which pest or weed control at 200 ppm [1] is on record?
A: 0%

Q: And the pest or weed control at 200 ppm [2]?
A: 0%

Q: What about the pest or weed control at 200 ppm [3] of the same molecule?
A: 50%

Q: What about the pest or weed control at 200 ppm [4] of the same molecule?
A: 0%

Q: What about the pest or weed control at 200 ppm [5] of the same molecule?
A: 100%

Q: And the MIC [7]?
A: 250 µg/mL (≈ 488 µM)

Q: And the MIC [8]?
A: > 500 µg/mL

Q: And the pest or weed control at 200 ppm [6]?
A: 50%

Q: For CCCCCCCCNC(=O)/C=C\SC(C(=O)Nc1nccs1)C(=O)OCC (stereo not drawn) [Example 25, N-n-octyl-cis-3-{2-[ethyl-N-(2-thiazoyl)malonamido]thio}acrylamide], which pest or weed control at 200 ppm [1] is on record?
A: 50%

Q: What about the pest or weed control at 200 ppm [2] of the same molecule?
A: 0%

Q: What about the pest or weed control at 200 ppm [3] of the same molecule?
A: 75%

Q: And the pest or weed control at 200 ppm [4]?
A: 0%

Q: What about the pest or weed control at 200 ppm [5] of the same molecule?
A: 100%

Q: And the MIC [7]?
A: > 500 µg/mL

Q: And the MIC [8]?
A: > 500 µg/mL

Q: What about the pest or weed control at 200 ppm [6] of the same molecule?
A: 80%

Q: How did the pest or weed control at 200 ppm [1] turn out when CCCCCCCCNC(=O)/C=C\SC(C(=O)NCCCCCC#N)C(=O)OCC (stereo not drawn) [Example 27, N-n-octyl-cis-3-{2-[ethyl-N-(5-cyanopentyl)malonamido]thio}acrylamide] was run?
A: 0%

Q: What about the pest or weed control at 200 ppm [2] of the same molecule?
A: 98%

Q: And the pest or weed control at 200 ppm [4]?
A: 0%

Q: What about the pest or weed control at 200 ppm [5] of the same molecule?
A: 100%

Q: What about the MIC [7] of the same molecule?
A: > 500 µg/mL

Q: What about the MIC [8] of the same molecule?
A: > 500 µg/mL

Q: What about the pest or weed control at 200 ppm [6] of the same molecule?
A: 100%

Q: Which pest or weed control at 100 ppm [1] does the source give for CCCCCCCCNC(=O)/C=C\SC(C(=O)Nc1ccc(Cl)cc1C#N)C(=O)OCC (stereo not drawn) [Example 43, N-n-octyl-cis-3-{2-[ethyl-N-(2-cyano-4-chlorophenyl)malonamido]thio}acrylamide] here?
A: 0%

Q: And the pest or weed control at 100 ppm [2]?
A: 100%

Q: And the pest or weed control at 100 ppm [3]?
A: 75%

Q: What about the pest or weed control at 100 ppm [4] of the same molecule?
A: 50%

Q: And the pest or weed control at 100 ppm [5]?
A: 100%

Q: And the pest or weed control at 100 ppm [6]?
A: 80%

Q: For CCCCCCCCNC(=O)/C=C\SC(C(=O)Nc1ccccn1)C(=O)OCC (stereo not drawn) [Example 44, N-n-octyl-cis-3-{2-[ethyl-N-(2-pyridyl)malonamido]thio}acrylamide], which pest or weed control at 100 ppm [1] is on record?
A: 0%

Q: What about the pest or weed control at 100 ppm [2] of the same molecule?
A: 50%

Q: What about the pest or weed control at 100 ppm [3] of the same molecule?
A: 75%

Q: And the pest or weed control at 100 ppm [4]?
A: 0%

Q: And the MIC [7]?
A: 250 µg/mL (≈ 593 µM)

Q: What about the MIC [8] of the same molecule?
A: > 500 µg/mL

Q: And the pest or weed control at 100 ppm [6]?
A: 0%

Q: What does the source list for CCCCCCCCNC(=O)/C=C\SC(C(=O)Nc1cc(Cl)ccc1OC)C(=O)OCC (stereo not drawn) [Example 46, N-n-octyl-cis-3-{2-[ethyl-N-(2-methoxy-5-chlorophenyl)malonamido]thio}acrylamide]?
A: pest or weed control at 100 ppm [1]: 50%; pest or weed control at 100 ppm [2]: 80%; pest or weed control at 100 ppm [3]: 50%; pest or weed control at 100 ppm [4]: 0%; MIC [7]: 250 µg/mL (≈ 515 µM); MIC [8]: > 500 µg/mL; pest or weed control at 100 ppm [6]: 0%
